Legend:
[1] = biological target: T1, FLO7 (Oryza sativa, UniProt Q337M4); assay: X-ray crystal structure at […] Å, soaked crystals; assay type: binding; conditions: active-site Ni(II); Arg64 binds the substrate
T1 construct: E. coli codon-optimized gene, expressed in E. coli BL21 (DE3), Ni-NTA purified
T1 sequence (Q337M4 48-364 limits assumed): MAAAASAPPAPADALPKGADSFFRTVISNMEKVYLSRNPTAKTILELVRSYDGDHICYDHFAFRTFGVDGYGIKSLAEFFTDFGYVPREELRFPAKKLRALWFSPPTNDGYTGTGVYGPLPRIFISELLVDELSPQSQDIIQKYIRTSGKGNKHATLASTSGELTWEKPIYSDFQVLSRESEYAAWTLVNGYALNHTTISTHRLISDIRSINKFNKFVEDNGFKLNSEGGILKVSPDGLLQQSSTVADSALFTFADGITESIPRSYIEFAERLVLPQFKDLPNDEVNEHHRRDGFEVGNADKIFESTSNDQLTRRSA

[2] = biological target: T2, AT1G07040 (Arabidopsis thaliana, UniProt Q9LMJ7); assay: in vitro assay, product by high resolution LC-MS; assay type: biochemical; conditions: conversion to 2-hydroxyglutarate; N-terminal localization peptide removed
T2 construct: amplified from Arabidopsis cDNA, expressed in E. coli BL21 (DE3), Ni-NTA purified
T2 sequence (Q9LMJ7 51-371): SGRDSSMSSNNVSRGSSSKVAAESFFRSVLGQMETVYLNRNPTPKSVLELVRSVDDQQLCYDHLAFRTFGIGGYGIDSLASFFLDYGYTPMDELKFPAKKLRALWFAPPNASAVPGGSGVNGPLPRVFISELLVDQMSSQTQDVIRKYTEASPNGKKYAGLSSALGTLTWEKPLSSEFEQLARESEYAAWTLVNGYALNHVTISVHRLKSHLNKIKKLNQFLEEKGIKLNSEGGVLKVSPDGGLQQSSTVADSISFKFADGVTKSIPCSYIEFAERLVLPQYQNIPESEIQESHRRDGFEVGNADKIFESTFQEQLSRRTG

[3] = biological target: T3, YdcJ (Escherichia coli, UniProt P76097); assay: in vitro assay, product by high resolution LC-MS; assay type: biochemical; conditions: conversion to 2-hydroxyglutarate
T3 construct: recombinant in E. coli BL21 (DE3), Ni-NTA purified
T3 sequence (P76097 1-447): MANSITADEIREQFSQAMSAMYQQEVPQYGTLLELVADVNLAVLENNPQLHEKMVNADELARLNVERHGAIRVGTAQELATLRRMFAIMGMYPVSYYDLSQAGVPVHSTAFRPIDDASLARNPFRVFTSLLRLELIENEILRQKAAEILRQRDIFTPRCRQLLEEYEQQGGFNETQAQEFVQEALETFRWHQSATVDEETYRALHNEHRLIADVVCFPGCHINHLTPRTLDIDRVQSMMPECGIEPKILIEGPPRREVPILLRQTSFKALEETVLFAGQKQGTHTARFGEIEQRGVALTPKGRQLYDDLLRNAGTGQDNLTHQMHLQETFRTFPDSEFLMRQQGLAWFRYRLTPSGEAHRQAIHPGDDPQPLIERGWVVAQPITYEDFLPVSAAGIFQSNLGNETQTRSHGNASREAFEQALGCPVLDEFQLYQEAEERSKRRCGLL

[4] = biological target: T4, HglS (Pseudomonas putida, UniProt Q88CC1); assay: X-ray crystal structure, soaked crystals; assay type: binding; conditions: active-site Ni(II) (noncatalytic); 2OA carboxylate and alpha-keto group coordinate the metal, Arg74 salt bridge
T4 construct: recombinant in E. coli BL21 (DE3), Ni-NTA purified; crystals contain mainly active-site Ni(II); activity with Fe(II)
T4 sequence (Q88CC1 1-464): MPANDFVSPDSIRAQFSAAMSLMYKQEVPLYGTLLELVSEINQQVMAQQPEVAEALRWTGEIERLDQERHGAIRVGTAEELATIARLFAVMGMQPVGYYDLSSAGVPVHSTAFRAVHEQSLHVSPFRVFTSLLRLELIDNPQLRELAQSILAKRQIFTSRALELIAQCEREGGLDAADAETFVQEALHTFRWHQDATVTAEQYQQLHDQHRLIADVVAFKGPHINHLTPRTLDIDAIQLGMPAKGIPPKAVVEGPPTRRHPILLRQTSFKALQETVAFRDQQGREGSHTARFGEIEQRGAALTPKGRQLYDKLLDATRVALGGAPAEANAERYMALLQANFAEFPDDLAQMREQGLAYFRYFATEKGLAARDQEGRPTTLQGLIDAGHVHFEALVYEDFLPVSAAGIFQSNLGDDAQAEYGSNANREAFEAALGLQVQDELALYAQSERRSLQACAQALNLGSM

[5] = substrate: O=C(O)CCCC(=O)C(=O)O; assay: steady-state kinetics of purified enzyme; assay type: biochemical, Oryza sativa; conditions: Fe(II)- and O2-dependent; N-terminal localization peptide removed
[6] = substrate: O=C(O)CCCC(=O)C(=O)O; assay: initial rates of O2 consumption, Clark-type electrode; assay type: biochemical, Pseudomonas putida; conditions: 10 µM FeSO4, 100 mM Tris pH 7.0, room temperature, 240 µM O2, 10-200 µM 2OA, 100 nM enzyme
Description: initial rates of O2 consumption, Clark-type electrode on HglS | kinetic parameters determined by monitoring oxygen consumption were similar to those we previously reported

O=C(O)CCCC(=O)C(=O)O [2OA, 2-oxoadipate]
X-ray crystal structure at 1.85 Å, soaked crystals [1]: soaked with 2OA, producing diffraction data used to solve the substrate-bound crystal structure
in vitro assay, product by high resolution LC-MS [2]: plant homologs AT1G07040 and FLO7 catalyzed the conversion of 2OA
in vitro assay, product by high resolution LC-MS [3]: the E. coli homolog YdcJ and the plant homologs AT1G07040 and FLO7 catalyzed the conversion
X-ray crystal structure, soaked crystals [4]: soaked HglS crystals with 2OA and solved the structure of the resulting complex

B1: FLO7 (Oryza sativa Japonica Group) (protein)
chain: MAAAASAPPAPADALPKGADSFFRTVISNMEKVYLSRNPTAKTILELVRSYDGDHICYDHFAFRTFGVDGYGIKSLAEFFTDFGYVPREELRFPAKKLRALWFSPPTNDGYTGTGVYGPLPRIFISELLVDELSPQSQDIIQKYIRTSGKGNKHATLASTSGELTWEKPIYSDFQVLSRESEYAAWTLVNGYALNHTTISTHRLISDIRSINKFNKFVEDNGFKLNSEGGILKVSPDGLLQQSSTVADSALFTFADGITESIPRSYIEFAERLVLPQFKDLPNDEVNEHHRRDGFEVGNADKIFESTSNDQLTRRSA
notes: E. coli codon-optimized gene, expressed in E. coli BL21 (DE3), Ni-NTA purified
Km [5]: 550 µM

B2: HglS (Pseudomonas putida KT2440) (protein)
chain: MPANDFVSPDSIRAQFSAAMSLMYKQEVPLYGTLLELVSEINQQVMAQQPEVAEALRWTGEIERLDQERHGAIRVGTAEELATIARLFAVMGMQPVGYYDLSSAGVPVHSTAFRAVHEQSLHVSPFRVFTSLLRLELIDNPQLRELAQSILAKRQIFTSRALELIAQCEREGGLDAADAETFVQEALHTFRWHQDATVTAEQYQQLHDQHRLIADVVAFKGPHINHLTPRTLDIDAIQLGMPAKGIPPKAVVEGPPTRRHPILLRQTSFKALQETVAFRDQQGREGSHTARFGEIEQRGAALTPKGRQLYDKLLDATRVALGGAPAEANAERYMALLQANFAEFPDDLAQMREQGLAYFRYFATEKGLAARDQEGRPTTLQGLIDAGHVHFEALVYEDFLPVSAAGIFQSNLGDDAQAEYGSNANREAFEAALGLQVQDELALYAQSERRSLQACAQALNLGSM
notes: recombinant in E. coli BL21 (DE3), Ni-NTA purified; crystals contain mainly active-site Ni(II); activity with Fe(II)
Km [6]: 10 µM

From article PMC7286885, “An iron (II) dependent oxygenase performs the last missing step of plant lysine catabolism” (Nature Communications, 2020)
